Measured values reported in ChEMBL document CHEMBL1201862, “PubChem BioAssay data set” (2004).
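Tested at 5 concentrations; 48 h exposure; 96-well plates; endpoints linearly interpolated, else capped at highest concentration. GI50 is the concentration that inhibits growth by half.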 Activity calls are given as the source filed them. Rule as the data show it: active = GI50 up to about 1.1 µM and inactive = higher.

How the values were obtained:
Assay in all cases: NCI anticancer screen, dose series, 48 h
UACC-62 = test system: UACC-62
SW-620 = test system: SW-620
UO-31 = test system: UO-31
NCI-H460 = test system: NCI-H460
COLO 205 = test system: COLO 205
OVCAR-3 = test system: OVCAR-3
A549 = test system: A549
NCI/ADR-RES = test system: NCI/ADR-RES
HL-60 = test system: HL-60
KM12 = test system: KM12
RXF 393 = test system: RXF 393
SF-295 = test system: SF-295
SK-MEL-2 = test system: SK-MEL-2
MOLT-4 = test system: MOLT-4
NCI-H226 = test system: NCI-H226
HCC 2998 = test system: HCC 2998
HT-29 = test system: HT-29
OVCAR-4 = test system: OVCAR-4
HOP-92 = test system: HOP-92
A498 = test system: A498

Measured: GI50

O=C(CN1CCCC1=O)CS(=O)(=O)c1ccccc1
inactive: UACC-62 > 100 µM | SW-620 > 100 µM | UO-31 > 100 µM | NCI-H460 > 100 µM | COLO 205 > 100 µM | OVCAR-3 > 100 µM | A549 > 100 µM | NCI/ADR-RES > 100 µM | HL-60 > 100 µM | KM12 > 100 µM | RXF 393 > 100 µM | SF-295 > 100 µM | SK-MEL-2 > 100 µM | MOLT-4 > 100 µM | NCI-H226 > 100 µM | HCC 2998 > 100 µM | HT-29 > 100 µM

CC1CC(C#N)=C2NCCN2C1=O (stereo not given)
inactive: UACC-62 > 10 µM | SW-620 31.9 µM | UO-31 > 100 µM | NCI-H460 > 100 µM | COLO 205 22.1 µM | OVCAR-3 > 100 µM | A549 > 100 µM | NCI/ADR-RES > 100 µM | HL-60 > 100 µM | KM12 > 100 µM | RXF 393 > 100 µM | SF-295 > 100 µM | SK-MEL-2 > 100 µM | MOLT-4 > 100 µM | NCI-H226 > 100 µM | OVCAR-4 > 100 µM | HCC 2998 > 100 µM | HT-29 > 100 µM

CC/C(CC(=O)CCC(=O)Nc1ccccc1[N+](=O)[O-])=N/NC(=O)C[n+]1ccccc1
inactive: UACC-62 > 100 µM | SW-620 > 100 µM | UO-31 > 100 µM | NCI-H460 > 100 µM | HOP-92 > 100 µM | COLO 205 > 100 µM | OVCAR-3 > 100 µM | A549 > 100 µM | A498 > 100 µM | HL-60 > 100 µM | KM12 > 100 µM | RXF 393 > 100 µM | SF-295 > 100 µM | SK-MEL-2 > 100 µM | MOLT-4 > 100 µM | NCI-H226 > 100 µM | OVCAR-4 > 100 µM | HCC 2998 > 100 µM | HT-29 > 100 µM

CC(C)(C)c1cc([Si](C)(C)C)c(C#N)c([Si](C)(C)C)c1
inactive: UACC-62 60.5 µM | SW-620 > 100 µM | UO-31 > 100 µM | NCI-H460 > 100 µM | HOP-92 > 100 µM | COLO 205 51.3 µM | OVCAR-3 > 100 µM | A549 65.5 µM | A498 > 100 µM | HL-60 22 µM | KM12 88.9 µM | RXF 393 36.6 µM | SF-295 29.8 µM | SK-MEL-2 > 100 µM | MOLT-4 37.2 µM | NCI-H226 87.9 µM | OVCAR-4 > 100 µM | HCC 2998 90.6 µM | HT-29 76.7 µM

CCOC(=O)c1c(N=C(S)Nc2ccc(Cl)cc2)sc2c1CCN(C)C2
inactive: UACC-62 > 100 µM | UO-31 83 µM | NCI-H460 94 µM | COLO 205 > 100 µM | OVCAR-3 74 µM | A549 > 100 µM | A498 > 100 µM | NCI/ADR-RES > 100 µM | HL-60 32.9 µM | KM12 > 100 µM | RXF 393 32.7 µM | SF-295 > 100 µM | SK-MEL-2 > 100 µM | MOLT-4 41.8 µM | NCI-H226 > 100 µM | HT-29 > 100 µM

C=CC/N=C1\N=C(C)C(C(=O)OCC)S1 (stereo not given)
inactive: UACC-62 > 100 µM | SW-620 > 100 µM | UO-31 > 100 µM | NCI-H460 > 100 µM | HOP-92 > 100 µM | COLO 205 > 100 µM | OVCAR-3 > 100 µM | A549 > 100 µM | A498 > 100 µM | HL-60 7.16 µM | KM12 > 100 µM | RXF 393 > 100 µM | SF-295 > 100 µM | SK-MEL-2 > 100 µM | MOLT-4 > 100 µM | NCI-H226 > 100 µM | OVCAR-4 > 100 µM | HCC 2998 > 100 µM | HT-29 > 100 µM

CC(C)(c1ccc(Oc2ccc(C#N)c(C#N)c2)cc1)c1ccc(Oc2ccc(C#N)c(C#N)c2)cc1
inactive: UACC-62 > 10 µM | SW-620 > 100 µM | UO-31 3.58 µM | NCI-H460 > 10 µM | HOP-92 > 10 µM | COLO 205 > 10 µM | OVCAR-3 > 10 µM | A549 > 10 µM | A498 > 10 µM | HL-60 > 10 µM | KM12 > 10 µM | RXF 393 > 10 µM | SF-295 > 10 µM | SK-MEL-2 > 10 µM | MOLT-4 > 10 µM | NCI-H226 > 10 µM | OVCAR-4 > 10 µM | HCC 2998 > 10 µM | HT-29 > 10 µM

CC(C)N(C(=O)C12CC3CC(CC(C3)C1)C2)C(C)C
inactive: UACC-62 > 50 µM | SW-620 > 50 µM | UO-31 > 50 µM | NCI-H460 > 50 µM | HOP-92 > 50 µM | COLO 205 > 50 µM | OVCAR-3 > 50 µM | A549 > 50 µM | A498 > 50 µM | HL-60 > 50 µM | KM12 > 50 µM | RXF 393 > 50 µM | SF-295 > 50 µM | SK-MEL-2 > 50 µM | MOLT-4 > 50 µM | NCI-H226 > 50 µM | OVCAR-4 > 50 µM | HCC 2998 > 50 µM | HT-29 > 50 µM

C[Si]1(C)C(c2ccccc2)=CC2C(c3ccccc3)(c3ccccc3)OC21c1ccccc1 (stereo not given)
inactive: UACC-62 > 100 µM | SW-620 > 100 µM | UO-31 > 100 µM | NCI-H460 > 100 µM | HOP-92 48.5 µM | COLO 205 > 100 µM | OVCAR-3 > 100 µM | A549 > 100 µM | A498 > 100 µM | HL-60 28.7 µM | KM12 > 100 µM | RXF 393 47.5 µM | SF-295 66.8 µM | SK-MEL-2 > 100 µM | MOLT-4 58.1 µM | NCI-H226 > 100 µM | OVCAR-4 > 100 µM | HCC 2998 > 100 µM | HT-29 43 µM

CCC1(CC)C(=O)N(C(=O)c2ccc(C)cc2)N(C(=O)c2ccc(C)cc2)C1=O
inactive: UACC-62 > 75 µM | SW-620 29.8 µM | UO-31 > 75 µM | NCI-H460 18.3 µM | COLO 205 > 75 µM | OVCAR-3 17.7 µM | A549 > 75 µM | NCI/ADR-RES 34.2 µM | HL-60 28.4 µM | KM12 50.9 µM | RXF 393 > 75 µM | SF-295 72.9 µM | SK-MEL-2 > 75 µM | MOLT-4 20 µM | NCI-H226 > 75 µM | OVCAR-4 > 75 µM | HCC 2998 > 75 µM | HT-29 > 75 µM

O=C1N[C@@H](COc2ccc(/C=N/c3ccc(CCc4ccc(/N=C/c5ccc(OC[C@@H]6COC(=O)N6)cc5)cc4)cc3)cc2)CO1
inactive: UACC-62 > 100 µM | SW-620 > 100 µM | UO-31 > 100 µM | COLO 205 > 100 µM | OVCAR-3 > 100 µM | A549 > 100 µM | A498 > 100 µM | NCI/ADR-RES > 100 µM | HL-60 > 100 µM | KM12 > 100 µM | RXF 393 > 100 µM | SF-295 > 100 µM | SK-MEL-2 > 100 µM | MOLT-4 > 100 µM | NCI-H226 > 100 µM | OVCAR-4 > 100 µM | HT-29 > 100 µM
